Source: PubChem BioAssay AID1053151 (Broad Institute, 2014)

Assays:
[1] = ApoB secretion inhibition in hepatoma cells – cell-based, HepG2, ELISA, plate reader, cherry-pick, orthogonal assay for Trib1 inducer project, dose response (AID 1053151); conditions: HepG2 secreted ApoB ELISA, 24 h, ApoB inhibition at active concentration, stronger effect = higher value
[2] = tested on: HepG2 secreted ApoB ELISA, 24 h; assay: as above

SMILES | inhibition ([1]; at 3.5 µM) [%] | active concentration (lower = more potent) [2] [nM] | inhibition ([1]; at 0.02 µM) [%]
CN1C(=O)c2cc(NC(=O)c3ccc(C(F)(F)F)cc3)ccc2OC[C@@H]2O[C@@H](CC(=O)NC3Cc4ccccc4C3)CC[C@@H]21 | 90 | 3500 | –
CN1C(=O)c2cc(NC(=O)c3ccc(C(F)(F)F)cc3)ccc2OC[C@@H]2O[C@H](CC(=O)NC3Cc4ccccc4C3)CC[C@@H]21 | – | 20 | 99
